In patent US20070238700A1, “N-PHENYL-1,1,1-TRIFLUOROMETHANESULFONAMIDE HYDRAZONE DERIVATIVE COMPOUNDS AND THEIR USAGE IN CONTROLLING PARASITES” (priority 2006, published 2007):
Where two headings read alike, the source gives them in different places.

System: Ctenocephalides felis
Protocol: b) Ctenocephalides felis Adulticide Assay: C. felis Single Dose Screen
Mortality of fleas was the primary endpoint in the assay. Fleas were considered dead if they didn't move or were on their sides and unable to walk or right themselves. […] The concentration chosen (1.26 μg/cm^2) was higher than that known to kill 90% of cat fleas (LC90) using the reference compound, permethrin.
The test species was the cat flea (Ctenocephalides felis). The strain used was obtained from external suppliers as pupae and held in the laboratory under testing conditions until the adults had emerged. Fifteen (15) fleas were used in a minimum of four replicates against a single concentration level (approximately 60 fleas). The insects were selected to be in the adult life stage, aged between 3 and 7 days post emergence.
The compounds to be tested were supplied as solids and were prepared in acetone as described below prior to testing. Samples were stored in a refrigerator (5±1° C.) unless otherwise specified.
During the mortality testing, the temperature was maintained at 25±1° C. Humidity was maintained at 75±5%. The base (area=159 mm^2) of a 100 mL glass Erlenmeyer (conical) flask provided the treatment surface. Flasks were pretreated with Coatasil™ glass treatment to maximise bio-availability of test compounds by preventing them from binding to glass the surface. The base of the 100 mL Erlenmeyer flask was treated with 0.5 mL of test sample in acetone and gently swirled. This volume was sufficient to cover the base of the flask. Flasks were left to dry for 24 hours before flea exposure.
Adult cat fleas were placed into a sorting chamber, which allowed fleas to jump into the Erlenmeyer flasks. Fifteen (15) adult cat fleas were collected in each flask. The top of the flasks were then covered in Parafilm™ and small holes were made to allow gas exchange. A 0.5 mL volume of acetone as a solvent control was applied to the base of an Erlenmeyer flask and the testing proceeded in the same manner described above. Cat fleas in the treatment containers were held under testing conditions for 8, 24 and/or 48 hours. Mortality was recorded at 8, 24, 8 and 24, or 24 and 48 hours Pooled 8, 24, 8 and 24, and 24 and 48 hour mortality data were converted to percentages and are summarized by Table 21, below.

| SMILES | C. felis Mortality (%) 8 h (8 h, data from laboratory 1) | C. felis Mortality (%) 24 h (24 h, data from laboratory 1) | C. felis Mortality (%) 8 h | C. felis Mortality (%) 24 h |
| --- | --- | --- | --- | --- |
| CC(=NNc1ccc(Cl)cc1)c1ccccc1NS(=O)(=O)C(F)(F)F [Compound 122] | 23% | 26% | – | – |
| CN(C)N=C(c1ccccc1)c1cc(Cl)ccc1NS(=O)(=O)C(F)(F)F [Compound 123, N-[2-[1-dimethylhydrazono-1-phenyl]methyl-4-chlorophenyl]-trifluoromethanesulfonamide] | – | – | 9% | 45% |
| CCC(=NN1CCCC1)c1cc(Cl)ccc1NS(=O)(=O)C(F)(F)F [Compound 128] | 12% | 36% | – | – |
| C#CCN(c1ccc(Cl)cc1C(C)=NN1CCCCC1)S(=O)(=O)C(F)(F)F [Compound 133, N-[2-[1-(1-piperidyl)imino]ethyl-4-chlorophenyl]-N-propargyltrifluoromethanesulfonamide] | – | – | 5% | 66% |
| CC(=NN1CCCCC1)c1cc(Cl)ccc1N(C)S(=O)(=O)C(F)(F)F [Compound 134] | 7% | 14% | – | – |
| CCN(c1ccc(Cl)cc1C(C)=NN1CCCCC1)S(=O)(=O)C(F)(F)F [Compound 135, N-[2-[1-(1-piperidyl)imino]ethyl-4-chlorophenyl]-N-ethyl-trifluoromethanesulfonamide] | – | – | 8% | 41% |
| CC(C)=CCN(c1ccc(Cl)cc1C(C)=NN(C)c1ccccc1)S(=O)(=O)C(F)(F)F [Compound 136] | 7% | 13% | – | – |
| C#CCN(c1ccc(Cl)cc1C(C)=NN(C)c1ccccc1)S(=O)(=O)C(F)(F)F [Compound 137] | 6% | 19% | – | – |
| CC(=NN(C)C(=O)c1ccccc1)c1cc(Cl)ccc1NS(=O)(=O)C(F)(F)F [Compound 138] | 20% | 66% | – | – |
| CC(=NN(C)c1cc(Cl)ccc1Cl)c1cc(Cl)ccc1NS(=O)(=O)C(F)(F)F [Compound 141] | 13% | 75% | – | – |
| CCN(N=C(C)c1cc(Cl)ccc1NS(=O)(=O)C(F)(F)F)c1cc(Cl)ccc1Cl [Compound 142] | 12% | 46% | – | – |
| CCCN(N=C(C)c1cc(Cl)ccc1NS(=O)(=O)C(F)(F)F)c1cc(Cl)ccc1Cl [Compound 143] | 13% | 53% | – | – |
| CC(=NN(c1cc(Cl)ccc1Cl)C(C)C)c1cc(Cl)ccc1NS(=O)(=O)C(F)(F)F [Compound 144] | 7% | 42% | – | – |
| CCOCN(c1ccc(Cl)cc1C(C)=NN1CCCCC1)S(=O)(=O)C(F)(F)F [Compound 145] | 8% | 35% | – | – |
| COCN(c1ccc(Cl)cc1C(C)=NN1CCCCC1)S(=O)(=O)C(F)(F)F [Compound 146] | 12% | 24% | – | – |
| CC(=NNc1ccc(C)cc1)c1cc(Cl)ccc1NS(=O)(=O)C(F)(F)F [Compound 155] | 7% | 28% | – | – |
| CCOC(=O)N(CCC(C)C)N=C(C)c1cc(Cl)ccc1NS(=O)(=O)C(F)(F)F [Compound 158] | – | – | 5% | 28% |
| CC(=NN1CCCCC1)c1cccc(NS(=O)(=O)C(F)(F)F)c1 [Compound 161] | 7% | 16% | – | – |
| CC(=NN(C)c1ccccc1)c1cc(NS(=O)(=O)C(F)(F)F)ccc1Cl [Compound 162] | 8% | 58% | – | – |
| CC(=NN(C)c1ccccc1)c1cccc(NS(=O)(=O)C(F)(F)F)c1 [Compound 163, N-[3-[1-(N′-methyl-N′-phenyl)hydrazono]ethylphenyl]-trifluoromethanesulfonamide] | – | – | 8% | 18% |

| SMILES | C. felis Mortality (%) 8 h (8 h, data from laboratory 1) | C. felis Mortality (%) 24 h (24 h, data from laboratory 1) | C. felis Mortality (%) 8 h | C. felis Mortality (%) 24 h |
| --- | --- | --- | --- | --- |
| CC(=NN(C)c1ccccc1)c1ccc(NS(=O)(=O)C(F)(F)F)cc1 [Compound 164] | 8% | 72% | – | – |
| CC(=NNc1ccc(Cl)cc1)c1ccc(NS(=O)(=O)C(F)(F)F)cc1 [Compound 165] | 6% | 7% | – | – |
| CC(=NN1CCCCC1)c1ccc(NS(=O)(=O)C(F)(F)F)cc1 [Compound 167] | 2% | 5% | – | – |
| C=CCN(N=C(C)c1cc(Cl)ccc1N(CC=C)S(=O)(=O)C(F)(F)F)c1ccc(Cl)cc1 [Compound 170] | 2% | 24% | – | – |
| C=CCN(N=C(C)c1cc(Cl)ccc1NS(=O)(=O)C(F)(F)F)c1ccc(Cl)cc1 [Compound 171] | 7% | 54% | – | – |
| CC(=NN(C)c1ccccc1)c1cc2c(cc1NS(=O)(=O)C(F)(F)F)OCO2 [Compound 172] | 5% | 31% | – | – |
| C=CCN(N=C(C)c1cc(Cl)ccc1NS(=O)(=O)C(F)(F)F)c1ccccc1 [Compound 173] | 17% | 59% | – | – |
| CC(=NNS(=O)(=O)c1ccc(C)cc1)c1cc(Cl)ccc1NS(=O)(=O)C(F)(F)F [Compound 174] | 5% | 27% | – | – |
| C#CCN(N=C(C)c1cc(Cl)ccc1NS(=O)(=O)C(F)(F)F)c1ccccc1 [Compound 175] | 5% | 38% | – | – |
| CC(=NN1CCCCC1)c1ccccc1NS(=O)(=O)C(F)(F)F [Compound 176] | 7% | 31% | – | – |
| CC(=NN1CCCCC1)c1ccc(C(F)(F)F)cc1NS(=O)(=O)C(F)(F)F [Compound 177] | 3% | 22% | – | – |
| CC(=NNc1ccc(F)cc1)c1ccccc1NS(=O)(=O)C(F)(F)F [Compound 178] | 4% | 29% | – | – |
| CC(=NNc1ccc(Cl)cc1)c1ccc(C(F)(F)F)cc1NS(=O)(=O)C(F)(F)F [Compound 179] | 3% | 25% | – | – |
| CC(=NNc1ccc(F)cc1)c1ccc(C(F)(F)F)cc1NS(=O)(=O)C(F)(F)F [Compound 180] | 0% | 16% | – | – |
| CC(=NN1CCCCC1)c1cc2c(cc1NS(=O)(=O)C(F)(F)F)OCO2 [Compound 181] | 7% | 16% | – | – |
| CCN(N=C(C)c1ccccc1NS(=O)(=O)C(F)(F)F)c1ccc(Cl)cc1 [Compound 182] | 5% | 29% | – | – |
| CC(=O)N(N=C(C)c1cc(Cl)ccc1NS(=O)(=O)C(F)(F)F)c1ccccc1 [Compound 183] | – | – | 2% | 22% |
| CC(=Nn1c(=O)oc2ccccc21)c1cc(Cl)ccc1NS(=O)(=O)C(F)(F)F [Compound 184, N-[4-Chloro-2-(1-(2(3H)-oxo-benzoxazol-3-yl)imino)ethylphenyl]-trifluoromethanesulfonamide] | – | – | 2% | 12% |
| CC(=Nn1cccn1)c1cc(Cl)ccc1NS(=O)(=O)C(F)(F)F [Compound 185] | 2% | 11% | – | – |
